In patent EP1415984A1, “Aryloxyarylsulfonylamino hydroxamic acid derivatives” (Pfizer Products Inc., priority 1997, dated 1999):
Several values for one entry are separate records, joined by “and”; a condition that tells them apart may be missing. Equal values may be shown once.

Legend:
[1] = target: T1, Human Collagenase (MMP-1) (Homo sapiens, UniProt P03956); experiment: Inhibition of Human Collagenase (MMP-1), fluorogenic peptide substrate; assay type: biochemical; settings: human recombinant collagenase activated with trypsin; each table line is a separate determination
T1 sequence (P03956 100-469): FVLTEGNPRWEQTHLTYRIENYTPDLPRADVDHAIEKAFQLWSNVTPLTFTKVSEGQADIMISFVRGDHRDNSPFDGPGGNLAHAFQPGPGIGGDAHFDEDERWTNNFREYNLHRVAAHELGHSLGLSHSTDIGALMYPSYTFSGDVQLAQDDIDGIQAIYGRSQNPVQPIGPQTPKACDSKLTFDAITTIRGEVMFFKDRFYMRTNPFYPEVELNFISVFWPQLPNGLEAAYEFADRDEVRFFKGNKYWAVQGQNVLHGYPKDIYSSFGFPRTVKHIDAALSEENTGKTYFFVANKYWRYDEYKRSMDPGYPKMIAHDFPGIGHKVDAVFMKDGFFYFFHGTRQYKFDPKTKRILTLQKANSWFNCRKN
Experimental: Inhibition of Human Collagenase (MMP-1)
Human recombinant collagenase is activated with trypsin using the following ratio: […] of collagenase. The trypsin and collagenase are incubated at room temperature for 10 minutes then a five fold excess (50 mg/10 mg trypsin) of soybean trypsin inhibitor is added.
10 mM stock solutions of inhibitors are made up in dimethyl sulfoxide and then diluted using the following Scheme: 10 mM ―> 120 µM ―> 12 µM ―> 1.2 µM ―> 0.12 µM
Twenty-five microliters of each concentration is then added in triplicate to appropriate wells of a 96 well microfluor plate. The final concentration of inhibitor will be a 1:4 dilution after addition of enzyme and substrate. Positive controls (enzyme, no inhibitor) are set up in wells D1-D6 and blanks (no enzyme, no inhibitors) are set in wells D7-D12.
Collagenase is diluted to 400 ng/ml and […] is then added to appropriate wells of the microfluor plate. Final concentration of collagenase in the assay is 100 ng/ml.
Substrate (DNP-Pro-Cha-Gly-Cys(Me)-His-Ala-Lys(NMA)-NH2) is made as a 5 mM stock in dimethyl sulfoxide and then diluted to […] in assay buffer. The assay is initiated by the addition of […] substrate per well of the microfluor plate to give a final concentration of […].
Fluorescence readings (360 nm excitation. 460 nm emission) were taken at time 0 and then at 20 minute intervals. The assay is conducted at room temperature with a typical assay time of 3 hours.
Fluorescence vs time is then plotted for both the blank and collagenase containing samples (data from triplicate determinations is averaged). […] The zero time is used as a blank for each compound at each concentration and these values are subtracted from the 120 minute data. Data is plotted as inhibitor concentration vs % control (inhibitor fluorescence divided by fluorescence of collagenase alone x 100). IC50's are determined from the concentration of inhibitor that gives a signal that is 50% of the control. […]

Human recombinant MMP-13 = Human recombinant MMP-13 (Homo sapiens, UniProt P45452); experiment: Inhibition of MMP-13, fluorogenic peptide substrate; assay type: biochemical; settings: human recombinant MMP-13 activated with APMA; each table line is a separate determination
Experimental: Human recombinant MMP-13 is activated with 2mM APMA (p-aminophenyl mercuric acetate) for 1.5 hours, at 37°C and is diluted to […] in assay buffer (50 mM Tris, pH 7.5, 200 mM sodium chloride, 5mM calcium chloride, […], 0.02% brij). Twenty-five microliters of diluted enzyme is added per well of a 96 well microfluor plate. The enzyme is then diluted in a 1:4 ratio in the assay by the addition of inhibitor and substrate to give a final concentration in the assay of […].
10 mM stock solutions of inhibitors are made up in dimethyl sulfoxide and then diluted in assay buffer as per the inhibitor dilution scheme for inhibition of human collagenase (MMP-1): Twenty-five microliters of each concentration is added in triplicate to the microfluor plate. The final concentrations in the assay are 30 mM, 3mM, 0.3 mM, and 0.03 mM.
Substrate (Dnp-Pro-Cha-Gly-Cys(Me)-His-Ala-Lys(NMA)-NH2) is prepared as for inhibition of human collagenase (MMP-1) and […] is added to each well to give a final assay concentration of […]. Fluorescence readings (360 nm excitation; 450 emission) are taken at time 0 and every 5 minutes for 1 hour.
Positive controls consist of enzyme and substrate with no inhibitor and blanks consist of substrate only.
IC50's are determined as per inhibition of human collagenase (MMP-1). If IC50's are reported to be less than […], inhibitors are then assayed at final concentrations of 0.3 mM, 0.03 mM, 0.003 mM and 0.0003 mM.

IC50 [1] | IC50 (Human recombinant MMP-13) | Structure (SMILES)
360 nM and 200 nM | 1.2 nM and 0.6 nM | O=C(O)CCN(C1(C(=O)NO)CCCC1)S(=O)(=O)c1ccc(Oc2ccc(F)cc2)cc1 [Example 2, 3-[[4-(4-FLUOROPHENOXY)BENZENESULFONYL]-(1-HYDROXYCARBAMOYLCYCLOPENTYL) AMINO]PROPIONIC ACID]
1200 nM and 1800 nM | 1.6 nM and 2.3 nM | CCOC(=O)CCN(C(C)(C)C(=O)NO)S(=O)(=O)c1ccc(Oc2ccc(F)cc2)cc1 [Example 3, 3-[[4-(4-FLUOROPHENOXY)BENZENESULFONYL]-(1-HYDROXYCARBAMOYL-1-METHYLETHYL)AMINO]PROPIONIC ACID ETHYL ESTER]
3500 nM and 2000 nM and 4800 nM | 5.7 nM and 2.3 nM and 8 nM | CC(C)(C(=O)NO)N(CCC(=O)O)S(=O)(=O)c1ccc(Oc2ccc(F)cc2)cc1 [Example 4, 3-[[4-(4-FLUOROPHENOXY)BENZENESULFONYL)-(1-HYDROXYCARBAMOYL-1-METHYLETHYL)AMINO]PROPIONIC ACID]
